From patent US11560596B2, “Method for expecting and diagnosing UQCRB-related disease” (Industry-Academic Cooperation Foundation, Yonsei University, priority 2015, dated 2023)

System: UQCRB mutant cell strains MT1 and MT2
Assay: MTT colorimetric assay of cell growth after treatment with cholesterol synthesis inhibitors
Format: cell-based
Conditions: FIGS. 11 to 13
Description: FIG. 11 represents MTT colorimetric assay showing the cell growth of HEK293, MT1, and MT2 cells treated with a cholesterol inhibitor.
FIG. 12 represents MTT colorimetric assay showing the cell growth of HEK293, MT1, and MT2 cells treated with a cholesterol inhibitor.
FIG. 13 represents MTT colorimetric assay showing the cell growth of HEK293, MT1, and MT2 cells treated with a cholesterol inhibitor.
For the purpose of verifying validity for selection of cholesterol metabolic process as a pathway in which UQCRB was participated, a cholesterol synthesis inhibitor was processed in UQCRB mutant cell strains to measure an effect that the cholesterol synthesis inhibitor affects growth of the UQCRB mutant cell strains, and the result thereof was shown in FIGS. 11 to 13.

F/C(COc1ccc2c(c1)[nH]c1ccccc12)=C1/CN2CCC1CC2 [YM-53601]
growth of the UQCRB mutant cell strains MT1 and MT2: inhibited

CC[C@H](C)C(=O)O[C@H]1CCC=C2C=C[C@H](C)[C@H](CC[C@@H]3C[C@@H](O)CC(=O)O3)[C@H]21 [Mevastatin]
growth of the UQCRB mutant cell strains MT1 and MT2: inhibited
